Here are results for two compounds from patent publication US12329773B2, “Oxygen reactive polymers for treatment of traumatic brain injury” (University of Washington, priority 2015, dated 2025).

The data set can be described thus: MR imaging of uptake, retention and clearance in CCI mouse model of TBI. The format is in vivo, mice. As to the method: 8-10 Week old C57/B6 mice were induced with 4% isoflurane gas via inhalation and maintained at 1.5-2%, then placed upon a warm heating pad set to 100° F. to maintain body temperature. Prior to surgery, hair on the top of the skull was trimmed and epilated via shears and Nair (Church and Dwight Co., Inc., Princeton, NJ). Lidocaine (0.05 mL at a 5 mg/mL) and bupivacaine (0.05 mL at 0.3 mg/mL) were injected subcutaneously under the scalp. After 5 min to allow anesthetic to absorb, a midline incision was made in the skin from lambda to bregma. Fascia and skin were retracted and a small hole drilled using a high speed surgical drill over the left frontoparietal cortex (3 mm anterior and 2 mm left from lambda), and a 3 mm circular cranial window created using rongeurs. A pneumatically-operated controlled cortical impactor (CCI) with a 3 mm convex tip was used to impact the brain normal to the dura surface at a depth of 1 mm at 6 m/s and remained in the brain for 150 ms. Incisions were closed using skin glue and mice given an intraperitoneal injection of buprenorphine (0.1 mg/kg). Mice were monitored under a heat lamp until awake.
Three consecutive T1w images were acquired with RARE (rapid acquisition with refocused echoes) pulse sequence: TR/TE=667.5/4.5 ms, matrix=256×128, field of view (FOV)=25.6×25.6 mm, number of averages (NA)=1, 15 slices and 1 mm slice thickness. […] A series of T1w images were acquired using a fast low angle shot (FLASH) pulse sequence. There were three—four consecutive T1w sequences acquired both pre and post injection—one set of three pre injection acquisitions and then three sets of four post injection acquisitions with an additional set post the following day (4 post imaging total). These images utilized a 3 dimensional (D) FLASH sequence: TR/TE=20/3.87 ms, flip angle=20°, matrix=160×160×30, FOV=25.6×25.6 mm, NA=2, 30 slices and 3D slab of 15 mm. For the first group of mice, T2w images (TR/TE=5500/50 ms) were selected from RARE pulse sequence with (TR=214.3, 500, 1000, 1500, 3000 and 5500 ms and TE=10, 30, 50, 70 and 90 ms, matrix=256×128, FOV=25.6×25.6 mm, NA=1, 2 slices and 1 mm slice thickness. For the second group of mice, T2w images (TR/TE=4000/37.7 ms) were selected from multi-slice and multi-echo imaging conducted with TR/TE=4000/6.3−75.4 ms (12 echoes with 6.3 ms spacing), matrix=256×128, NA=1, 15 slices and 1 mm slice thickness.

For `O=C([O-])CN(CCN(CC(=O)[O-])CC(=O)O)CCN(CC(=O)[O-])CC(=O)O.[Gd+3]` [Gd-DTPA, reference compound], for the setting “injected 3 hrs post-CCI”, the “accumulation / contrast enhancement in damaged brain (T1 contrast)” value is “displayed contrast enhancement in damaged brain”. This compound also came in with a blood half-life (injected post-CCI, intravascular MR signal) of 0.6 h.

As to poly(MEMcoO950coMNHS) [ORP], for the setting “mouse, in vivo”, the “accumulation / contrast enhancement in damaged brain (T1 contrast)” value is listed as “showed accumulation in damaged brain after 18 hrs”, the “accumulation in damaged brain (T1 contrast)” value is “accumulates in the damaged region of brain”, the “blood (circulation) half-life” value is “about 1.1 hrs” and the “half-life in damaged brain (resident half-life)” value is “greater than 14 hrs”. Moreover, for the setting “mouse, in vivo”, the “half-life in the ventricles” value is ~40 h, the “retention in damaged brain” value was “at least 18 hrs” and the “retention within damaged brain” value was “at least 24 hrs”.
